Experimental data as given in patent publication US8586591B2, “Aminopyrazine derivative and medicine” (Nippon Shinyaku Co., Ltd., priority 2009, dated 2013).
Counter-ions that a name gives are not always drawn.

Assays:
[1] = target: T1, JAK3 tyrosine kinase (Homo sapiens, UniProt P52333); assay: Test 1: inhibitory activity to JAK3 tyrosine kinase (ELISA); format: biochemical; details: 25 μM ATP in substrate solution, 30° C. for 1 hour, n=2
T1 construct: purchased Carnabioscience Co
T1 sequence (P52333 1-1124): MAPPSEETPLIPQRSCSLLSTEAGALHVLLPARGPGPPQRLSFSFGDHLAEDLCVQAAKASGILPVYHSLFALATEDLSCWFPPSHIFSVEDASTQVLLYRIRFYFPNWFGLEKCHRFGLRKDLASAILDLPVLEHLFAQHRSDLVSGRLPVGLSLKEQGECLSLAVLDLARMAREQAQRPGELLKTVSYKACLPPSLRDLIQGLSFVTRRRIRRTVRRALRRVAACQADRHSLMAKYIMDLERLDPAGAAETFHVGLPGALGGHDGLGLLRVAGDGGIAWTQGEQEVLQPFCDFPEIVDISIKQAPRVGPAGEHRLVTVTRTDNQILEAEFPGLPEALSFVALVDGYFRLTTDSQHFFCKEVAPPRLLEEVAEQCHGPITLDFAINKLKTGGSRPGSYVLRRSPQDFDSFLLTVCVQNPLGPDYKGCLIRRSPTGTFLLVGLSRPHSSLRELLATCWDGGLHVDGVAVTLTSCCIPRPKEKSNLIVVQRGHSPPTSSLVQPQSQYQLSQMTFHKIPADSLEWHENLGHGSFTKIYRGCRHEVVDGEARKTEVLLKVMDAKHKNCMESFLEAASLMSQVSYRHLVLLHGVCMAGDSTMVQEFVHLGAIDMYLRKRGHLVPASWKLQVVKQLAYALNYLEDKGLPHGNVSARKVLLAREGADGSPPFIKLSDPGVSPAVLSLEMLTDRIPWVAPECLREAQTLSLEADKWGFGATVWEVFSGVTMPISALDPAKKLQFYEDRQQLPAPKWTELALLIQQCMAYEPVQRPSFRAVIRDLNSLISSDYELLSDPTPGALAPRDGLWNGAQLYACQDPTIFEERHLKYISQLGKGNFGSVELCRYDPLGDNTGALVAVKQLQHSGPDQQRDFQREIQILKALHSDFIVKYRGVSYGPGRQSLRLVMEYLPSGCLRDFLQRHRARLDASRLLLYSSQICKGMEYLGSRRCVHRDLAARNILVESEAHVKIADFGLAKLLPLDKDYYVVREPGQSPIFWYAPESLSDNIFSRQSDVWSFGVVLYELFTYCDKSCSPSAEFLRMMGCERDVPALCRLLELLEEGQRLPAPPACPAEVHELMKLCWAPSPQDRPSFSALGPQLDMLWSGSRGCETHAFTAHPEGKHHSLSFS
Procedure, shortened: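 ELISA of JAK3 kinase activity with absorbance read at 450 nm. Compounds were tested from DMSO dilution series at 100-fold the measurement concentrations (1000–0.01 μM), diluted up to 20 times in assay buffer, against a DMSO negative control. IC50 was estimated by non-linear regression of absorbance.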

[2] = target: T2, JAK2 tyrosine kinase (Homo sapiens, UniProt O60674); assay: Test 1: inhibitory activity to JAK2 tyrosine kinase (ELISA); format: biochemical; details: 25 μM ATP in substrate solution, 30° C. for 1 hour, n=2
T2 construct: purchased Carnabioscience Co
T2 sequence (O60674 whole entry): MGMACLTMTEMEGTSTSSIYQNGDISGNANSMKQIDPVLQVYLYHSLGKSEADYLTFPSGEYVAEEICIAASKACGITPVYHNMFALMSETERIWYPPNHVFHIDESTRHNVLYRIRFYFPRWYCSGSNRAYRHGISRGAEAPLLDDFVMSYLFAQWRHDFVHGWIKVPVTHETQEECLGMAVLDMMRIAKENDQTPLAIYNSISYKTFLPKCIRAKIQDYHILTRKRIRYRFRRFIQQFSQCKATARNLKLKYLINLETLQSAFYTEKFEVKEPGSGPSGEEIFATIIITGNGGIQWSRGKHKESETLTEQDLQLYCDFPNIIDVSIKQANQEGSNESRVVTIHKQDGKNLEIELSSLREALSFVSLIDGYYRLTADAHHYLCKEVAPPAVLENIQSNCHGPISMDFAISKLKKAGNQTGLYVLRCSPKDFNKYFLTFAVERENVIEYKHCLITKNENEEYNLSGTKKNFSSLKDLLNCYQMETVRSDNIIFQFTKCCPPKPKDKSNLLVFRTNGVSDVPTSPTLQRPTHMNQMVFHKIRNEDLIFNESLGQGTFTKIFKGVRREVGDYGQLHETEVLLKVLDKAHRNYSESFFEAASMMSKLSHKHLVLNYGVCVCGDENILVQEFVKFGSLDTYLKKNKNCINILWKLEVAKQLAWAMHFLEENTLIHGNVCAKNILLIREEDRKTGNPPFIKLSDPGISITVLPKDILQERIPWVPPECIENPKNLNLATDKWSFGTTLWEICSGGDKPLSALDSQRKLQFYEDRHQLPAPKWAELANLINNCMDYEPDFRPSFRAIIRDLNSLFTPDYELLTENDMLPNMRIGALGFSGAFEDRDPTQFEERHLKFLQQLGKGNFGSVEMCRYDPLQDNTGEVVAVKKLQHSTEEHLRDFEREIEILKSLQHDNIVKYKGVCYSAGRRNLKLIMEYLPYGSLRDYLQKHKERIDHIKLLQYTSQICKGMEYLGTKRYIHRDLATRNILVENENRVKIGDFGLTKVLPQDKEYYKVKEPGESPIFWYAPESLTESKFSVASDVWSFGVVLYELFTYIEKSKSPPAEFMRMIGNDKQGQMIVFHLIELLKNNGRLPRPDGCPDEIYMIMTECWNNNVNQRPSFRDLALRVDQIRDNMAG
Procedure: Test 1: Test for inhibitory activity to JAK2 and JAK3 tyrosine kinase 1. Preparation of Test Material
The test material was dissolved in dimethylsulfoxide (DMSO) to be 10 mM, and further diluted with DMSO to be 100-fold concentrations for measurement (1000, 300, 100, 30, 10, 3, 1, 0.3, 0.1, 0.03, 0.01 μM). In addition, solutions diluted with an assay buffer up to 20 times were used as solutions of the test material. As a negative control, a solution of DMSO diluted 20 times with an assay buffer was used. As the assay buffer, 15 mM Tris-Cl (pH 7.5), 0.01 v/v % Tween-20, and 1 mM dithiothreitol were used.
2. Measurement of the Activities of JAK2 and JAK3 Tyrosine Kinases
The activity was determined by ELISA. The solution of the test material (10 μl each; n=2) was placed in a streptavidine-coated 96 well plate (DELFIA Strip Plate 8×12 wells; Perkin Elmer), to which 20 μl each of substrate solution (625 nM biotin-labeled peptide substrate, 25 μM ATP, 25 mM MgCl2, 15 mM Tris-Cl (pH 7.5), 0.01 v/v % Tween-20, and 1 mM dithiothreitol), was added and stirred. Finally, 20 μl each of JAK2 tyrosine kinase (Carnabioscience Co.) (diluted to 0.75 nM with assay buffer) or JAK3 tyrosine kinase (Carnabioscience Co.) (diluted to 0.75 nM with assay buffer) was added, stirred and allowed to stand at 30° C. for 1 hour. The plate was washed 4 times with a washing buffer (50 mM Tris-Cl, pH 7.5, 150 mM NaCl, 0.02 v/v % Tween-20), and then a blocking buffer (0.1% Bovine Serum Albumin, 50 mM Tris-Cl, pH 7.5, 150 mM NaCl, 0.02 v/v % Tween-20)(150 μl each) was added for blocking at 30° C. for 30 minutes. Blocking buffer was removed, and there was added 100 μl each of horse radish peroxidase-labeled anti-phosphorylated tyrosin kinase antibody (BD Bioscience Co.) (diluted 10,000 times with blocking buffer). The plate was incubated at 30° C. for 30 minutes and then washed 4 times with a washing buffer, and 100 μl each of 3,3′,5,5′-tetramethylbenzidine (Sigma-Aldrich Co.) was added to develop color for 10 minutes. 0.1 M sulfuric acid (100 μl each) was added to stop the reaction. The absorbance was measured by means of a micro-plate reader (BIO-RAD; Model 3550) at 450 nm.
3. Analysis of the Results of the Measurement
The measured absorbance was subjected to a non-linear regression analysis by means of a SAS system (SAS Institute Inc.), and the concentration (IC50) of the test material which inhibited 50% of the activity of each tyrosine kinase was estimated.

Row | IC50 [1] [nM] | IC50 [2] [nM] | SMILES
1 | 1300 | 12 | C[C@H](Nc1cc(-c2ccnn2C)cc(Nc2cnccn2)n1)c1ccc(F)cc1 [Example 47, (S)—N^2-[1-(4-Fluorophenyl)ethyl]-4-(1-methyl-1H-pyrazol-5-yl)-N^6-(pyrazin-2-yl)pyridine-2,6-diamine]
2 | 140 | 6 | C[C@H](Nc1cc(-c2cnn(CC3CC3)c2)cc(Nc2cnccn2)n1)c1ccc(F)cc1 [Example 48, (S)-4-[1-(Cyclopropylmethyl)-1H-pyrazol-4-yl]-N^2-[1-(4-fluorophenyl)ethyl]-N^6-(pyrazin-2-yl)pyridine-2,6-diamine]
3 | 170 | 2.3 | C[C@H](Nc1nc(Nc2cnccn2)cc(-c2cncs2)n1)c1ccc(F)cc1 [Example 49, (S)—N^2-[1-(4-Fluorophenyl)ethyl]-N^4-(pyrazin-2-yl)-6-(thiazol-5-yl)pyrimidine-2,4-diamine]
4 | 160 | 2 | C[C@H](Nc1nc(Nc2cnccn2)cc(-c2cncnc2)n1)c1ccc(F)cc1 [Example 52, (S)—N^2-[1-(4-Fluorophenyl)ethyl]-N^6-(pyrazin-2-yl)-4,5′-bipyrimidine-2,6-diamine]
5 | 390 | 5.9 | COc1ncc(-c2cc(Nc3cnccn3)nc(N[C@@H](C)c3ccc(F)cc3)n2)s1 [Example 53, (S)—N^2-[1-(4-Fluorophenyl)ethyl]-6-(2-methoxythiazol-5-yl)-N^4-(pyrazin-2-yl)pyrimidine-2,4-diamine]
6 | 1800 | 22 | C[C@H](Nc1nc(Nc2cnccn2)cc(-c2nccs2)n1)c1ccc(F)cc1 [Example 54, (S)—N^2-[1-(4-Fluorophenyl)ethyl]-N^4-(pyrazin-2-yl)-6-(thiazol-2-yl)pyrimidine-2,4-diamine]
7 | 190 | 2 | C[C@H](Nc1nc(Nc2cnccn2)cc(-c2ccc(C#N)nc2)n1)c1ccc(F)cc1 [Example 55, (S)-5-{2-[1-(4-Fluorophenyl)ethylamino]-6-(pyrazin-2-ylamino)pyrimidin-4-yl}picolinonitrile]
8 | 82 | 1.3 | C[C@H](Nc1nc(Nc2cnccn2)cc(-c2ccc(C(N)=O)nc2)n1)c1ccc(F)cc1 [Example 57, (S)-5-{2-[1-(4-Fluorophenyl)ethylamino]-6-(pyrazin-2-ylamino)pyrimidin-4-yl}picolinamide]
9 | 26 | 0.69 | C[C@H](Nc1nc(Nc2cnccn2)cc(N2CCNC(C(N)=O)C2)n1)c1ccc(F)cc1 (stereo partly drawn) [Example 58, 4-{2-[(S)-1-(4-Fluorophenyl)ethylamino]-6-(pyrazin-2-ylamino)pyrimidin-4-yl}piperazin-2-carboxamide]
10 | 60 | 1.7 | C[C@H](Nc1nc(Nc2cnccn2)cc(N2CCC(N)C2)n1)c1ccc(F)cc1 (stereo partly drawn) [Example 59, 6-(3-Aminopyrrolidin-1-yl)-N^2-[(S)-1-(4-fluorophenyl)ethyl]-N^4-(pyrazin-2-yl)pyrimidine-2,4-diamine]
11 | 150 | 6 | C[C@H](Nc1nc(Nc2cnccn2)cc(N(CCO)CCO)n1)c1ccc(F)cc1 [Example 61, (S)-2-({2-[1-(4-Fluorophenyl)ethylamino]-6-(pyrazin-2-ylamino)pyrimidin-4-yl}(2-hydroxyethyl)amino)ethan-1-ol hydrochloride]
12 | 65 | 2.2 | C[C@H](Nc1nc(NCCN(C)C)cc(Nc2cnccn2)n1)c1ccc(F)cc1 [Example 62, (S)—N^4-[2-(Dimethylamino)ethyl]-N^2-[1-(4-fluorophenyl)ethyl]-N^6-(pyrazin-2-yl)pyrimidine-2,4,6-triamine dihydrochloride]
13 | 36 | 1 | C[C@H](Nc1nc(Nc2cnccn2)cc(N2CCCC(C(N)=O)C2)n1)c1ccc(F)cc1 (stereo partly drawn) [Example 63, 1-{2-[(S)-1-(4-Fluorophenyl)ethylamino]-6-(pyrazin-2-ylamino)pyrimidin-4-yl}piperidin-3-carboxamide hydrochloride]
14 | 220 | 7 | C[C@H](Nc1nc(Nc2cnccn2)cc(N2CCC[C@H]2C(N)=O)n1)c1ccc(F)cc1 [Example 64, (S)-1-{2-[(S)-1-(4-Fluorophenyl)ethylamino]-6-(pyrazin-2-ylamino)pyrimidin-4-yl}pyrrolidin-2-carboxamide hydrochloride]
15 | 37 | 1.8 | C[C@H](Nc1nc(Nc2cnccn2)cc(-c2cc[nH]c2)n1)c1ccc(F)cc1 [Example 66, (S)—N^2-[1-(4-Fluorophenyl)ethyl]-N^4-(pyrazin-2-yl)-6-(1H-pyrrol-3-yl)pyrimidine-2,4-diamine]
16 | 470 | 11 | C[C@H](Nc1nc(Nc2cnccn2)cc(N2C[C@H](O)CC2=O)n1)c1ccc(F)cc1 [Example 67, (R)-1-{2-[(S)-1-(4-Fluorophenyl)ethylamino]-6-(pyrazin-2-ylamino)pyrimidin-4-yl}-4-hydroxypyrrolidin-2-one]
17 | 34 | 1.5 | C[C@H](Nc1nc(NCC2CCCO2)cc(Nc2cnccn2)n1)c1ccc(F)cc1 (stereo partly drawn) [Example 68, N^2-[(S)-1-(4-Fluorophenyl)ethyl]-N^4-(pyrazin-2-yl)-N^6-[(tetra hydrofuran-2-yl)methyl]pyrimidine-2,4,6-triamine]
18 | 83 | 2.6 | C[C@H](Nc1nc(Nc2cnccn2)cc(N2CCC[C@H]2CO)n1)c1ccc(F)cc1 [Example 69, ((S)-1-{2-[(S)-1-(4-Fluorophenyl)ethylamino]-6-(pyrazin-2-ylamino)pyrimidin-4-yl}pyrrolidin-2-yl)methanol]
19 | 65 | 1.5 | C[C@H](Nc1nc(Nc2cnccn2)cc(N2CCC[C@@H]2CO)n1)c1ccc(F)cc1 [Example 70, ((R)-1-{2-[(S)-1-(4-Fluorophenyl)ethylamino]-6-(pyrazin-2-ylamino)pyrimidin-4-yl}pyrrolidin-2-yl)methanol hydrochloride]
20 | 26 | 0.72 | C[C@H](Nc1nc(Nc2cnccn2)cc(N2CCC(O)CC2)n1)c1ccc(F)cc1 [Example 71, (S)-1-{2-[1-(4-Fluorophenyl)ethylamino]-6-(pyrazin-2-ylamino)pyrimidin-4-yl}piperidin-4-ol hydrochloride]
